Assays:
[1] = target: T1, Serine/threonine-protein kinase D1 (Homo sapiens) (UniProt Q15139); assay: Inhibition of PKD1 (unknown origin) at 0.45 uM relative to control
T1 sequence (whole entry): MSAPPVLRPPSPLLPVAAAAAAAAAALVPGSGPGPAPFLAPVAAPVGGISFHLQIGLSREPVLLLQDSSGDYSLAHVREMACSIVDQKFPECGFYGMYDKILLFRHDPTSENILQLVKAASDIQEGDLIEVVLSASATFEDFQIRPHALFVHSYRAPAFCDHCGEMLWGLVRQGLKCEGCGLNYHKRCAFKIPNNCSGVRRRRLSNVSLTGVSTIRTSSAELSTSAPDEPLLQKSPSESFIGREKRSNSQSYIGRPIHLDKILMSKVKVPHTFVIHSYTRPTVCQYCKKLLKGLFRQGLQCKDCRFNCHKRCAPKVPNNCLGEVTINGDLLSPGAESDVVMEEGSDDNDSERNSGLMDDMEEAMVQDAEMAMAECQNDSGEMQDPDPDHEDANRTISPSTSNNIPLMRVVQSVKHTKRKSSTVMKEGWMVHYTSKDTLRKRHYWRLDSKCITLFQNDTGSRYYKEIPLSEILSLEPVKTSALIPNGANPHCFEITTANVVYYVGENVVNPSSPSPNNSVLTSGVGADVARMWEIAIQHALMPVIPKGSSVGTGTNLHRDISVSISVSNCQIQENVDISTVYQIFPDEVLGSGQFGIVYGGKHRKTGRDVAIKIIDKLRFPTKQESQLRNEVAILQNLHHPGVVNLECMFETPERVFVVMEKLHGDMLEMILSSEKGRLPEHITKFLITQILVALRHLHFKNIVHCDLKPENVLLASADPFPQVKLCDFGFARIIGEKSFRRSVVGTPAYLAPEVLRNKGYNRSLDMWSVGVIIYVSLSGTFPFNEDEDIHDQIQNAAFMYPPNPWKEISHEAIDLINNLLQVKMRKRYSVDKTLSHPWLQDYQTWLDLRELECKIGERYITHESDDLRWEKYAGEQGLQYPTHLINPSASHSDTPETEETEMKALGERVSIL

[2] = target: RAC-beta serine/threonine-protein kinase (Homo sapiens) (UniProt P31751); assay: Inhibition of AKT2 (unknown origin) at 0.19 uM relative to control
[3] = target: Serine/threonine-protein kinase Nek9 (Homo sapiens) (UniProt Q8TD19); assay: Inhibition of NEK9 (unknown origin) at 0.19 uM relative to control
[4] = target: Death-associated protein kinase 3 (Homo sapiens) (UniProt O43293); assay: Inhibition of ZIPK (unknown origin) at 0.19 uM relative to control
[5] = target: Ribosomal protein S6 kinase alpha-6 (Homo sapiens) (UniProt Q9UK32); assay: Inhibition of RSK4 (unknown origin) at 0.19 uM relative to control
[6] = test system: Platelet-derived growth factor receptor alpha (Homo sapiens), P16234 [V561D]; assay: Inhibition of PDGFRA V561D mutant (unknown origin) at 0.19 uM relative to control
[7] = target: Serine/threonine-protein kinase 10 (Homo sapiens) (UniProt O94804); assay: Inhibition of LOK (unknown origin) at 0.19 uM relative to control
[8] = target: Serine/threonine-protein kinase pim-2 (Homo sapiens) (UniProt Q9P1W9); assay: Inhibition of PIM2 (unknown origin) at 0.19 uM relative to control
[9] = target: Mitogen-activated protein kinase 11 (Homo sapiens) (UniProt Q15759); assay: Inhibition of p38-beta2 (unknown origin) at 0.19 uM relative to control
[10] = test system: Mast/stem cell growth factor receptor Kit (Homo sapiens), P10721 [T670I]; assay: Inhibition of KIT T670I mutant (unknown origin) at 0.164 uM relative to control
[11] = target: T2, Serine/threonine-protein kinase DCLK1 (Homo sapiens) (UniProt O15075); assay: Inhibition of DCAMKL1 (unknown origin) at 0.164 uM relative to control
T2 sequence (whole entry): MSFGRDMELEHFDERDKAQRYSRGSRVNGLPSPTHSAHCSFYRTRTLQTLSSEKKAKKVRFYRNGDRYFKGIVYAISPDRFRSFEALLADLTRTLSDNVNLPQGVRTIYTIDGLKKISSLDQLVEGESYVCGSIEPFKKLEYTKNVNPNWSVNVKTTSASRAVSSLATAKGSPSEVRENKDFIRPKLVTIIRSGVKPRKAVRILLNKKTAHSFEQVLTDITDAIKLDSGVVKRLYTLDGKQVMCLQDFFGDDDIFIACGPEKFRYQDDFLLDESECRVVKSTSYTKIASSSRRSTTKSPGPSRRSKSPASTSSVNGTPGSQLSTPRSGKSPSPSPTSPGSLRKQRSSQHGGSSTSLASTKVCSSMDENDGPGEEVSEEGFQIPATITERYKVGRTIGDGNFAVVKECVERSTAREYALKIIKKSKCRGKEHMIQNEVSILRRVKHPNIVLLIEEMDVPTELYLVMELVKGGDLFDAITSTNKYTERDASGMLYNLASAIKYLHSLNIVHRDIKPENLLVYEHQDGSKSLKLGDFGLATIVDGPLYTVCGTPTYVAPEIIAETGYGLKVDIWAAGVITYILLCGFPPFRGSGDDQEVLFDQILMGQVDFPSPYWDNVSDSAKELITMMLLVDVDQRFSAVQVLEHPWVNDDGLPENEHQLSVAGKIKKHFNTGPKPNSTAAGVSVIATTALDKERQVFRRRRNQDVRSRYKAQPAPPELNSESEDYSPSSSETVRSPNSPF

[12] = target: Ephrin type-B receptor 1 (Homo sapiens) (UniProt P54762); assay: Inhibition of EPHB1 (unknown origin) at 0.164 uM relative to control
[13] = target: Interleukin-1 receptor-associated kinase 4 (Homo sapiens) (UniProt Q9NWZ3); assay: Inhibition of IRAK4 (unknown origin) at 0.164 uM relative to control
[14] = target: Mitogen-activated protein kinase 3 (Homo sapiens) (UniProt P27361); assay: Inhibition of Erk1 (unknown origin) at 0.164 uM relative to control
[15] = target: Fibroblast growth factor receptor 2 (Homo sapiens) (UniProt P21802); assay: Inhibition of FGFR2 (unknown origin) at 0.164 uM relative to control
[16] = target: Inhibitor of nuclear factor kappa-B kinase subunit epsilon (Homo sapiens) (UniProt Q14164); assay: Inhibition of IKBKE (unknown origin) at 0.164 uM relative to control
[17] = target: Tyrosine-protein kinase Lck (Homo sapiens) (UniProt P06239); assay: Inhibition of LCK (unknown origin) at 0.164 uM relative to control
[18] = target: Cyclin-dependent kinase 2 (Homo sapiens) (UniProt P24941); assay: Inhibition of CDK2 (unknown origin) at 0.164 uM relative to control
[19] = target: Proto-oncogene tyrosine-protein kinase Src (Homo sapiens) (UniProt P12931); assay: Inhibition of SRC (unknown origin) at 0.164 uM relative to control

Tyrosine-protein kinase Lck (Homo sapiens), sequence (P06239 2-509 limits assumed): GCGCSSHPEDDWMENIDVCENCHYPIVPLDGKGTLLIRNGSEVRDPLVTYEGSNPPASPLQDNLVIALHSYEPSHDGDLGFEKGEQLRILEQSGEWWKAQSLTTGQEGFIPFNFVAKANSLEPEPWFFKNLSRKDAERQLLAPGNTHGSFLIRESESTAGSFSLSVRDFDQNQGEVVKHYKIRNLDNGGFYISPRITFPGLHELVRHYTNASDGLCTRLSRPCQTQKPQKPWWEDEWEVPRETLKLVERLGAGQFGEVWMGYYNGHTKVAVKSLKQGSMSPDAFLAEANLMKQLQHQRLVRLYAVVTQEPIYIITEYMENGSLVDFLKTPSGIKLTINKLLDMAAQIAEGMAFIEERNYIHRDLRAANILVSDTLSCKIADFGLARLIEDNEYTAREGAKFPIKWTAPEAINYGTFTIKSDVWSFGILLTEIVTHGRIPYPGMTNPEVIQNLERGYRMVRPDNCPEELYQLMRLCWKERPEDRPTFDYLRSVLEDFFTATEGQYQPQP
Platelet-derived growth factor receptor alpha (Homo sapiens), P16234 [V561D], sequence (P16234 whole entry V561D): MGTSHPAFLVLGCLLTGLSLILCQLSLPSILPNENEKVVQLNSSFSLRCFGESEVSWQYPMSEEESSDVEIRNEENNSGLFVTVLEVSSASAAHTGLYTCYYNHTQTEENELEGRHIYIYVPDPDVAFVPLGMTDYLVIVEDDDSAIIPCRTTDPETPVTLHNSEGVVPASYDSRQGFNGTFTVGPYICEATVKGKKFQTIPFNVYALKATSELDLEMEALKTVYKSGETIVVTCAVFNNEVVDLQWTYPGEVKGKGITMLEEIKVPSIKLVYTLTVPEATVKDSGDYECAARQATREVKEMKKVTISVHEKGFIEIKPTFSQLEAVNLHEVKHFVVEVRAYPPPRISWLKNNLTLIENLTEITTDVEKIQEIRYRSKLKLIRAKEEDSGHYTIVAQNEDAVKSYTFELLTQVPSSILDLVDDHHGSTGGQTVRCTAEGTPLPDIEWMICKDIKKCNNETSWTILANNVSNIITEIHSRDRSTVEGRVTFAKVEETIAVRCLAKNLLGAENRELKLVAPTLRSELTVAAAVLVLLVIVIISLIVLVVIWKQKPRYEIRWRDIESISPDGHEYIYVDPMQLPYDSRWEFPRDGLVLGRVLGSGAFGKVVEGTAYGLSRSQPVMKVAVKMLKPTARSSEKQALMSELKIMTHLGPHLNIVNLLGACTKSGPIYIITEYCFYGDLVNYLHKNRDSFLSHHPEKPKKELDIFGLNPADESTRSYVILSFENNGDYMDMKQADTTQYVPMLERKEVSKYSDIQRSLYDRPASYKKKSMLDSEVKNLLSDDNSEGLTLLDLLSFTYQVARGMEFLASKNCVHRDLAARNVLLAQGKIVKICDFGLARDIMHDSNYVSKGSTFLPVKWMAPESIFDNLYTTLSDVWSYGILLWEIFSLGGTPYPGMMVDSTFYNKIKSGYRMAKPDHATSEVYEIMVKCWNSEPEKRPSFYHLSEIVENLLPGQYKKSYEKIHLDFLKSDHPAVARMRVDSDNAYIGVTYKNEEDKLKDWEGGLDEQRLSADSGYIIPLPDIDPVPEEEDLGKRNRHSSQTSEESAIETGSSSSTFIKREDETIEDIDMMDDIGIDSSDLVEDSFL
RAC-beta serine/threonine-protein kinase (Homo sapiens), sequence (P31751 whole entry): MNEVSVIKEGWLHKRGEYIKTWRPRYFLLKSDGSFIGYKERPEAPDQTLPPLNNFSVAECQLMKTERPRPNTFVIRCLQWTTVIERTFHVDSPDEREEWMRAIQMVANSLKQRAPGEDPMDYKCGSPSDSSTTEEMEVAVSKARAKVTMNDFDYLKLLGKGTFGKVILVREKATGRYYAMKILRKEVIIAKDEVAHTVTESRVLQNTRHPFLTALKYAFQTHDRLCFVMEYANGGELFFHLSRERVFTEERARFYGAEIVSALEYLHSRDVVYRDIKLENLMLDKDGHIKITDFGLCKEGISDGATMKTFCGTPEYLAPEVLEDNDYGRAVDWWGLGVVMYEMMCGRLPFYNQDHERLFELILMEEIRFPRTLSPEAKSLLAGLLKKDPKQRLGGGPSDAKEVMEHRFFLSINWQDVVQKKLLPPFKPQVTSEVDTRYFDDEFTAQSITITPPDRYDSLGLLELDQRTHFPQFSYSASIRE
Inhibitor of nuclear factor kappa-B kinase subunit epsilon (Homo sapiens), sequence (Q14164 whole entry): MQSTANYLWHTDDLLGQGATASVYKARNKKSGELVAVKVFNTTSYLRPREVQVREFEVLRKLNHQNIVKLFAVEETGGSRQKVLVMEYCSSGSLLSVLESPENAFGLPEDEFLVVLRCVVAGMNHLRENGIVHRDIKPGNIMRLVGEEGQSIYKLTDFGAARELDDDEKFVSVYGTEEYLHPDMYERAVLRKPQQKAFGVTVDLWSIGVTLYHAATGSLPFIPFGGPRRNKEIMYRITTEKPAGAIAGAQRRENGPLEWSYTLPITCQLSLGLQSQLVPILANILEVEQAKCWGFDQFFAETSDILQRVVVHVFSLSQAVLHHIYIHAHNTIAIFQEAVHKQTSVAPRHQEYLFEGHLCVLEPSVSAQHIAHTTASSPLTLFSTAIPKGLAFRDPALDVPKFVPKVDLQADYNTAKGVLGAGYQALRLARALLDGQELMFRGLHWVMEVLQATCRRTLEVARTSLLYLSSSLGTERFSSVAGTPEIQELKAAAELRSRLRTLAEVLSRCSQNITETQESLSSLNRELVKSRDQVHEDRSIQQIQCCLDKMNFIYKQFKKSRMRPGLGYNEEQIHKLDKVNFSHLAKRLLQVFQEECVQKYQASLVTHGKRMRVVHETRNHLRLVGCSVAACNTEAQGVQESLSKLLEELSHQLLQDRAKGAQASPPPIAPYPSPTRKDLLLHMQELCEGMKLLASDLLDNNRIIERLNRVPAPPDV
Mitogen-activated protein kinase 11 (Homo sapiens), sequence (Q15759 whole entry): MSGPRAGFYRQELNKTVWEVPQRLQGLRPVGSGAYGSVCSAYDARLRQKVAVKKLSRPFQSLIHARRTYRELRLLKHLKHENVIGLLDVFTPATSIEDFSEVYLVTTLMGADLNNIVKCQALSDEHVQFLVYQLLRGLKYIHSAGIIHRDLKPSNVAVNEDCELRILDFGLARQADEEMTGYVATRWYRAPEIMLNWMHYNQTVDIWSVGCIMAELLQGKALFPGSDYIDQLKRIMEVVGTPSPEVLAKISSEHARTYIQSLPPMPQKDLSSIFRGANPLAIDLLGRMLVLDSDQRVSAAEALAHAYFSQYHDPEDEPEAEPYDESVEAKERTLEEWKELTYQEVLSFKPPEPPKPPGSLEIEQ
Mitogen-activated protein kinase 3 (Homo sapiens), sequence (P27361 whole entry): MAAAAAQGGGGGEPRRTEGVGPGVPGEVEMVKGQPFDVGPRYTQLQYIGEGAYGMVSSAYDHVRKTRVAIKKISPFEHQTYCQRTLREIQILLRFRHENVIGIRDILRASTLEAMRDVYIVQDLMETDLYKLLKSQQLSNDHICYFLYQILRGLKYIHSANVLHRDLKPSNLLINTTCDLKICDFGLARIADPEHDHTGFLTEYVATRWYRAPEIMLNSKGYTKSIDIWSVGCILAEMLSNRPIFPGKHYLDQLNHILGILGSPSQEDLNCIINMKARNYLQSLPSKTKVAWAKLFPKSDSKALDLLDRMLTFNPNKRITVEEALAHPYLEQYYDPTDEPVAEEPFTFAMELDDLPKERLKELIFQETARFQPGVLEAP
Serine/threonine-protein kinase 10 (Homo sapiens), sequence (O94804 whole entry, looked up): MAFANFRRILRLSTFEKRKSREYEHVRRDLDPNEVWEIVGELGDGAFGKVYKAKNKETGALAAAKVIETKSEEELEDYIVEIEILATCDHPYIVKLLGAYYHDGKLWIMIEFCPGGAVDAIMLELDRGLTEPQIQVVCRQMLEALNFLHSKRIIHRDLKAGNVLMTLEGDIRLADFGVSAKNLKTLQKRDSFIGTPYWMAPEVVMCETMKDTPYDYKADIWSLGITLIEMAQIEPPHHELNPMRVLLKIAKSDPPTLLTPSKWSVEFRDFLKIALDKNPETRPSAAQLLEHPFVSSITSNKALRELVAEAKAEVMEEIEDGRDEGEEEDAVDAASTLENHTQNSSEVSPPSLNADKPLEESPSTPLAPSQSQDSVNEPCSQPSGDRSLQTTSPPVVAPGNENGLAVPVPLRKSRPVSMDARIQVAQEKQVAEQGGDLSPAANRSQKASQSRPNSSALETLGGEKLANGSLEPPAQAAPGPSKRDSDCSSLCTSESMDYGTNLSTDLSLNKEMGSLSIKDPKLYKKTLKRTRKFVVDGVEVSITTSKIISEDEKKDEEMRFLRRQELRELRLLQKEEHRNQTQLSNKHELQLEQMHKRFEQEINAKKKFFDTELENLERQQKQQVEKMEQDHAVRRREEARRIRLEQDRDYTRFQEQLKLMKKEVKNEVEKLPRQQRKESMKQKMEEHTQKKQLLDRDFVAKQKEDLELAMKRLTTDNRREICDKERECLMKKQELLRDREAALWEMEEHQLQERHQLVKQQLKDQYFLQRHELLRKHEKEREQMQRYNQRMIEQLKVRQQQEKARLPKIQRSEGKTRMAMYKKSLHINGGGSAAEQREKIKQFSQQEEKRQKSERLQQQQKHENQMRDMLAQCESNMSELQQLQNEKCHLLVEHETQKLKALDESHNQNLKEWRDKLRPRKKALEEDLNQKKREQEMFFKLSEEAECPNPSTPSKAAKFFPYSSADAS
Interleukin-1 receptor-associated kinase 4 (Homo sapiens), sequence (Q9NWZ3 whole entry): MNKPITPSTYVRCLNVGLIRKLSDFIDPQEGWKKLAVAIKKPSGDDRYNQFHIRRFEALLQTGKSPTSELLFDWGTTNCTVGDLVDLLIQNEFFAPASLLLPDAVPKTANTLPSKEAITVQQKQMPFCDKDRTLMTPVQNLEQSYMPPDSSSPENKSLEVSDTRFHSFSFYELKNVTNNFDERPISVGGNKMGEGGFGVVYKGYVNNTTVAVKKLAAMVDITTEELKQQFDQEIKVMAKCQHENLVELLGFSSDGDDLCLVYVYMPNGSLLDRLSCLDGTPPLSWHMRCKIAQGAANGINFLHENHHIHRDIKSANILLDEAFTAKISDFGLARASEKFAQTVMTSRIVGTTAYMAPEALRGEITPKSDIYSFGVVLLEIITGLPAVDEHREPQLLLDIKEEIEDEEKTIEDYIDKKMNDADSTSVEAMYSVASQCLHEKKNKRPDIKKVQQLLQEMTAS

`Cc1n[nH]c(C)c1-c1ccc2c(NC(=O)c3ccc(N4CCN(C)CC4)cc3)n[nH]c2c1` was tested. Which inhibition [1] did it give?
Its inhibition is 1.3%.

Which inhibition [2] does the source give for `Cc1[nH]nc(C2CC2)c1-c1ccc2c(-c3ccc(N4CCN(C)CC4)nc3)n[nH]c2c1` here?
The inhibition was 1%.

What about the inhibition [3] of the same compound?
Its inhibition is -3%.

What about the inhibition [4] of the same compound?
The inhibition was -2%.

And the inhibition [5]?
Its inhibition is -2%.

And the inhibition [6]?
The inhibition was 63.3%.

And the inhibition [7]?
Its inhibition is 4.3%.

What about the inhibition [8] of the same compound?
Its inhibition is 2%.

What about the inhibition [9] of the same compound?
Its inhibition is -1.7%.

`COC(=O)Nc1cc(-c2c(C3CC3)n[nH]c2C)cc2[nH]ncc12` was tested. Which inhibition [10] did it give?
The inhibition was 1%.

And the inhibition [11]?
The inhibition was -4.7%.

And the inhibition [12]?
The inhibition was 3%.

What about the inhibition [13] of the same compound?
The inhibition was -7.7%.

And the inhibition [14]?
The inhibition was 7%.

What about the inhibition [15] of the same compound?
The inhibition was -5.3%.

And the inhibition [16]?
Its inhibition is 0.3%.

And the inhibition [17]?
The inhibition was 17.3%.

And the inhibition [18]?
Its inhibition is 9%.

And the inhibition [19]?
Its inhibition is 5.7%.
